From article PMC6662706, “Short amylin receptor antagonist peptides improve memory deficits in Alzheimer’s disease mouse model” (Scientific Reports, 2019)
No end group written: not given here.

What was measured:
Assay type in all cases: in vivo, mouse
5XFAD mice = test: Brain amyloid pathology and neuroinflammation markers in 5XFAD mice (thioflavin-S, Western blot)
Excerpt: We initiated treatment of 5XFAD and wild-type control mice at 6 month age at a time point when they had also developed very significant amyloid burden in addition to the spatial memory deficits noted above (Fig. 4A). […] There was significant reduction in the amyloid plaque numbers, and the overall amyloid burden (as judged by the area covered by plaques) in these brain regions in the peptide treated mice (Fig. 5B, p < 0.05). […] (Fig. 5C,D, p < 0.05).
After completion of treatments, the mouse brains were harvested and the right hemisphere was frozen for biochemical analysis (Western blot, ELISA), and the left hemisphere was fixed with PAF for further processed. The thicker brain sections were stained thioflavin-S for detecting Aβ plaques.
After completion of treatments, all mice were sacrificed with an overdose of isoflourane anesthetic, perfused transcardially with saline using a pump, and the brains were harvested. The right hemisphere was frozen for biochemical analysis (Western blot, ELISA), and the left hemisphere was fixed with PAF for 24 h at 4 C. These brain tissues were further processed with modified CLARITY protocol (http://www.chunglabresources.com/clarity/). Briefly, the fixed brain tissue was transferred to hydrogel monomer solution (4% acrylamide in PBS) at 4 C for 24 h, and subsequently to a 24-well plate, merged in fresh hydrogel solution and the tissue brought to 37 C till formation of the gel. Thick sagittal slices (400 μm) were cut on an HR2 Slicer (Sigman Electronic, Germany). The thicker brain sections were cleared with 8% SDS in PBS for 24 h, followed by 0.3% Triton X-100 in PBS for 24 h. Blocking the section in 2%BSA-10% goat serum for 4h. A modified thioflavin-S staining was used for detecting Aβ plaques. […] Images were visualized using fluorescence microscopy (Axioplan-2, Carl Zeiss Ltd). Amyloid plaque size and area were analyzed with Image J software.
Frozen brain tissues or cultured cells were homogenized in cold RIPA buffer with protease inhibitors and proteins were quantified with BCA assay (BioRad, Mississauga, ON, Canada). […]

[1] = Ex vivo NIR fluorescence brain imaging after ip injection (brain penetration); settings: wild-type mice, 0, 0.6, 2, 10, 20 mg/kg single ip dose, 2 h, n = 3 per dose
Excerpt: Blood brain barrier (BBB) penetration can limit the potential of long sequence peptides as therapeutic agents in central nervous system (CNS). Previously, we have reported that a cyclized form of AC253 peptide and to a lesser degree its linear form can both penetrate the BBB at therapeutically relevant levels, and are localized to the hippocampus and cortex, regions relevant to memory and learning processes. Therefore, we examined the ability of Cy5.5 labeled peptide fragments (R5, and R14) to penetrate BBB in wild-type mice using NIR fluorescence ex vivo brain imaging. Brain fluorescence resulting from either R5 or R14 was assessed against full length AC253 2 h after a single intraperitoneal (ip) injection of peptides. […] Fluorescence signals were distributed throughout the cortex, but particularly strong within the hippocampal regions, where a very high density of amylin receptor expression has been reported. […]
In vivo brain penetration and pharmacokinetics of the peptides were determined in 6-month-old male or female wild-type (C57BL/6 background) and heterozygous CTR mice (het-CTR). […]
For ex vivo imaging experiments and peptide brain uptake, we used age matched 6-month-old wild-type littermate (C57BL/6 background) mice. […] Region of interest was drawn around the brain region and analyzed using the Kodak ID 3.6 software and the mean fluorescence intensity was recorded. […]

[2] = Observation for off-target effects and body weight during 5 weeks of treatment; settings: mice
Experimental: The determination of injection amount of R5 (200 µg/kg) was based on achieving equimolar concentrations as the full length peptide, cAC253[21] and prior studies that used pramlintide injections[22],[23]. The normal mouse circulated endogenous amylin level is 0.7 ± 0.4 pmol/L in plasma[32] and based upon our in vitro data (Fig. 1E) unlikely to perturb the function of peptides in vivo at these concentrations.

[3] = 5 weeks ip, normalized to β-actin, n = 6, p < 0.05

SQELHRLQTYPR-NH2 [R5]
amyloid proteins (Aβ, 6E10) in cortical tissue, Western blot, versus normal saline (5XFAD mice; [3]): significantly reduced
neuroinflammation markers CD68, NLPR3 and caspase-1, Western blot (5XFAD mice; [3]): significantly attenuated
amyloid pathology in the cortex, hippocampus and thalamus versus saline (5XFAD mice; ip three times a week for 5 weeks, thioflavin-S): significantly reduced amyloid pathology
accumulation in the brain at increasing dose [1]: dose-dependent
body weight ([2]; 5 weeks of ip treatment): no significant changes in body weight
signs of off-target effects (sedation, gait, feeding or drinking, weight loss, hair loss, grooming) ([2]; 5 weeks of ip treatment three times a week): None of the mice receiving cAC253 or R5 showed any signs of off-target effects
